In PMC6017328, “Tetrasubstituted Imidazolium Salts as Potent Antiparasitic Agents against African and American Trypanosomiases” (Molecules : A Journal of Synthetic Chemistry and Natural …, 2018):
Where two headings read alike, the source gives them in different places.

Experiments:
[1] = cited from earlier work
[2] = test system: L6 rat myoblast cells; assay: Cytotoxic activity against rat skeletal myoblast L6 cells; format: cell-based; settings: 144 h; cytotoxicity, L6 rat myoblasts, 6 days
Description: Cytotoxicity was assessed using microtiter plates following a previously described protocol. Briefly, L6 cells were seeded at 1 × 10^4 mL^−1 in 200 μL of growth medium at different compound concentrations. The plates were incubated for 6 days at 37 °C and then 20 μL resazurin was added to each well. After a further 8 h incubation, fluorescence was determined using a Spectramax plate reader.

[3] = PAMPA-BBB assay (brain permeability); format: in vitro ADME, porcine; settings: for Papp: pig, PAMPA, PBS:EtOH 70:30, n=3 ± S.D. in Table S5, read-out: PAMPA-BBB permeability (Pe), experimental value; for CNS Prediction: predictive penetration in the CNS from PAMPA-BBB Pe
Description: The in vitro permeability (Pe) of the tested compounds and fourteen reference drugs through a lipid extract of porcine brain membrane was assessed by using a parallel artificial membrane permeation assay. Commercial drugs and the target compounds were tested using a mixture of phosphate-buffered saline (PBS): EtOH 70:30. The assay was validated by comparing the experimental permeability with the reported values of the reference drugs.

[4] = test system: T. cruzi epimastigotes (CL Brener stain); assay: T. cruzi culturing and evaluation of trypanocidal activity (resazurin); format: cell-based; settings: Trypanosoma cruzi; for EC90: epimastigotes, CL Brener, growth reduced by 90%
Description: Activity was determined using 96-well plate assays. Cultures were diluted to 2.5 × 10^5 mL^−1, aliquoted in triplicate at a range of compound concentrations, and incubated for 4 days. Resazurin was added and the plates incubated for a further 3 days, then read in a Spectramax plate reader as outlined above.

[5] = test system: Bloodstream form T. brucei (strain 221); assay: T. brucei culturing and evaluation of trypanocidal activity (resazurin); format: cell-based; settings: Trypanosoma brucei; for EC50: concentration reducing parasite growth by 50%, triplicate; for EC90: concentration reducing parasite growth by 90%
Description: Bloodstream form T. brucei (strain 221) were grown as described previously. […] Logarithmically growing T. brucei were diluted to 2.5 × 10^4 mL^−1 and aliquoted into 96-well plates. Then, compounds were added at a range of concentrations and the plates incubated at 37 °C. Each compound was tested in triplicate. Resazurin was added after 48 h and the plates incubated for a further 16 h. The plates were then read in a Spectramax plate reader. Results were analyzed using GraphPad Prism.

[6] = test system: Bloodstream form T. brucei (strain 221); settings: read-out: EC50 (T. brucei); comparison drug; cited from earlier work
[7] = test system: T. cruzi epimastigotes (CL Brener stain); settings: read-out: EC50 (T. cruzi); comparison drug; cited from earlier work

Structure (SMILES)	PAMPA-BBB permeability (Pe), bibliography value [1]	EC50 [2] [µM]	Papp [3] [×10⁻⁶ cm/s]	CNS Prediction [3]	EC50 [4] [µM]	EC90 [4] [µM]	EC50 [5] [µM]	EC90 [5] [µM]	BBB permeation (in words) ([3]; according to the limits of Di et al., low Pe < 1.89, uncertain 5.16 > Pe 10^−6 cm s^−1 > 1.89)	EC50 [6] [µM]	EC50 [7] [µM]
CN/C(=N/CCSCc1nc[nH]c1C)NC#N [Cimetidine]	0.0 10-6 cm s-1										
Cc1ccc(-n2c[n+](C(C)(C)C)c(Cc3ccccc3)c2-c2ccccc2)cc1 [Compound 1a]		33.9 ± 3.3	4.2	CNS+/-	1.85 ± 0.29	3.41 ± 0.14	0.18 ± 0.01	0.28 ± 0.07			
COc1ccc(-n2c[n+](-c3ccc(OC)cc3)c(Cc3ccccc3)c2-c2ccc(C)cc2)cc1 [Compound 1b]		4.6 ± 0.38	4.9	CNS+/-	0.44 ± 0.01	1.29 ± 0.05	0.04	0.05			
COc1ccc(-n2c[n+](C(C)(C)C)c(Cc3ccc(C)cc3)c2-c2ccc(Cl)cc2)cc1 [Compound 1c]		9.69 ± 0.58	2.6	CNS+/-	1.72 ± 0.39	2.98 ± 0.19	0.18 ± 0.01	0.2 ± 0.01			
Cc1ccc(-n2c[n+](-c3ccc4ccccc4c3)c(Cc3ccccc3)c2-c2ccc(Cl)cc2)cc1 [Compound 1d]		4.09 ± 0.28	2.4	CNS+/-	0.54 ± 0.08	1 ± 0.04	0.07	0.09			
Cc1ccc(-n2c[n+](CC(=O)[O-])c(Cc3ccccc3)c2-c2ccccc2)cc1 [Compound 1e]		> 130	1.6	CNS-	> 20	> 20	5.26 ± 0.01	6.79 ± 0.09	low BBB permeation		
CN1C(C(=O)Nc2ccccn2)=C(O)c2ccccc2S1(=O)=O [Piroxicam, reference compound]			1.7 ± 0.03								
CC1CS(=O)(=O)CCN1/N=C/c1ccc([N+](=O)[O-])o1 (stereo not shown) [nifurtimox]										~2	~2
